Source: patent publication US10227606B2, “Method of increasing photosynthesis and yield of plants” (NATIONAL UNIVERSITY CORPORATION NAGOYA UNIVERSITY, priority 2013, dated 2019)

System: stomata (guard cells)
Experiment: Measurement of the stomatal aperture in isolated epidermal tissue
Format: cell-based, Arabidopsis thaliana
Conditions: 20 μM ABA, 2.5 hours under illumination; AHA2-transgenic and wild-type plants
Procedure: The stomatal aperture was measured according to a conventional method (27) with slight modifications. Epidermal tissue isolated from plants 3 to 4 weeks after planting overnight dark-adapted plants was incubated in basal buffer (5 mM MES-BTP, pH 6.5, 50 mM KCl, and 0.1 mM CaCl2). To inhibit light-induced stomatal opening using ABA, the epidermal tissue was incubated under blue light/red light (10 μmol m^−2s^−1 blue light (Stick-B-32; EYELA, Tokyo, Japan) superimposed on 50 μmol ^m−2s^−1 background red light (LED-R; EYELA)) for 2.5 hours at 24° C. in the presence or absence or 20 μM ABA. The stomatal aperture in the abaxial epidermis was measured using a microscope. Stomatal aperture was represented as the average and standard error (SEM) for 25 stomata. Results were confirmed by blind reassessment by another researcher.

CC1=CC(=O)CC(C)(C)[C@@]1(O)/C=C/C(C)=C\C(=O)O [ABA, abscisic acid]
effect of ABA on light-induced stomatal opening: inhibited
